Measured values as given in PubChem BioAssay AID330 (DTP/NCI, 2004).
“And” between values parts separate entries of the source, which are not always exact repeats. Identical values can stand only once. Inconclusive results and toxic doses are left out. Peptide text beside a SMILES is read from it. * marks the point of attachment. Cbz = O=C(OCc1ccccc1)*

System: P388 leukemia ip, CD2F1 mice, survival T/C
Assay: NCI In Vivo Anticancer Drug Screen. Data for tumor model P388 Leukemia (intraperitoneal) in CD2F1 (CDF1) mice
Conditions: endpoint: median survival time, higher = longer survival
How it was run: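 Mice carrying the transplanted tumor received test compound or vehicle. Survival was recorded in each group, and the value is the treated-group measurement divided by that of the vehicle-treated control group.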

[1] = dose: 50.0 mg/kg/injection, schedule: Q01DX005 (ip), vehicle: Klucel (hydroxypropylcellulose) (HPC)
[2] = dose: 100.0 mg/kg/injection, schedule: Q01DX005 (ip), vehicle: Klucel (hydroxypropylcellulose) (HPC)
[3] = dose: 200.0 mg/kg/injection, schedule: Q01DX005 (ip), vehicle: Klucel (hydroxypropylcellulose) (HPC)
[4] = dose: 22.0 mg/kg/injection, schedule: Q01DX009 (ip), vehicle: saline
[5] = dose: 100.0 mg/kg/injection, schedule: Q04DX003 (ip), vehicle: Klucel (hydroxypropylcellulose) (HPC)
[6] = dose: 200.0 mg/kg/injection, schedule: Q04DX003 (ip), vehicle: Klucel (hydroxypropylcellulose) (HPC)
[7] = dose: 400.0 mg/kg/injection, schedule: Q04DX003 (ip), vehicle: Klucel (hydroxypropylcellulose) (HPC)
[8] = dose: 50.0 mg/kg/injection, schedule: Q01DX005 (ip), vehicle: saline with Tween-80
[9] = dose: 100.0 mg/kg/injection, schedule: Q01DX005 (ip), vehicle: saline with Tween-80
[10] = dose: 200.0 mg/kg/injection, schedule: Q01DX005 (ip), vehicle: saline with Tween-80

CN1CCN(CC(=O)c2c(-c3ccccc3)[nH]c3ccccc23)CC1
T/C (dose: 100.0 mg/kg/injection, schedule: Q04DX003 (ip), vehicle: saline): 101 % of control
T/C (dose: 200.0 mg/kg/injection, schedule: Q04DX003 (ip), vehicle: saline): 105 % of control
T/C (dose: 400.0 mg/kg/injection, schedule: Q04DX003 (ip), vehicle: saline): 97 % of control

COc1ccc2[nH]c3c(c(=O)n(C)c(=O)n3C)c2c1
T/C [1]: 92 % of control
T/C [2]: 93 % of control
T/C [3]: 92 % of control

NCC(=O)O.[Cl-].[Cl-].[Cl-].[Cl-].[Pt+2]
T/C (dose: 12.5 mg/kg/injection, schedule: Q01DX009 (ip), vehicle: saline): 124 % of control
T/C (dose: 14.7 mg/kg/injection, schedule: Q01DX009 (ip), vehicle: saline): 108 % of control
T/C [4]: 108 % of control

COP(=O)(OC)O/C(=C/Cl)c1cc(Cl)cc(Cl)c1Cl
T/C [5]: 102 % of control
T/C [6]: 100 % of control
T/C [7]: 111 % of control

COc1ccc(CSC(=S)Nc2cc(C)c(C)cc2[N+](=O)[O-])cc1
T/C (dose: 50.0 mg/kg/injection, schedule: Q01DX009 (ip), vehicle: suspension in saline): 93 % of control
T/C (dose: 100.0 mg/kg/injection, schedule: Q01DX009 (ip), vehicle: suspension in saline): 97 % of control
T/C (dose: 200.0 mg/kg/injection, schedule: Q01DX009 (ip), vehicle: suspension in saline): 97 % of control

CCN(Cc1cccc(S(=O)(=O)O)c1)c1ccc(C(=C2C=CC(=[N+](CC)Cc3cccc(S(=O)(=O)O)c3)C=C2)c2ccccc2Cl)cc1
T/C [8]: 103 % of control
T/C [9]: 99 % of control
T/C [10]: 110 % of control

COc1cccc2c1C(=O)c1c(O)c3c(c(O)c1C2=O)C[C@@](O)(C(C)=O)C[C@@H]3OC1CC(N(C)C)C(O)C(C)O1 (stereo not given in full)
T/C (dose: 0.25 mg/kg/injection, schedule: Q01DX009 (ip), vehicle: water): 115 % of control
T/C (dose: 0.5 mg/kg/injection, schedule: Q01DX009 (ip), vehicle: water): 158 % of control
T/C (dose: 0.63 mg/kg/injection, schedule: Q04DX003 (ip), vehicle: water): 115 % of control
T/C (dose: 1.0 mg/kg/injection, schedule: Q01DX009 (ip), vehicle: water): 171 % of control and 190 % of control
T/C (dose: 1.25 mg/kg/injection, schedule: Q01DX001 (ip), vehicle: water): 116 % of control
T/C (dose: 1.25 mg/kg/injection, schedule: Q04DX003 (ip), vehicle: water): 100 % of control
T/C (dose: 2.0 mg/kg/injection, schedule: Q01DX009 (ip), vehicle: water): 200 % of control and 228 % of control
T/C (dose: 2.16 mg/kg/injection, schedule: Q04DX003 (ip), vehicle: water): 151 % of control
T/C (dose: 2.5 mg/kg/injection, schedule: Q04DX003 (ip), vehicle: water): 109 % of control
T/C (dose: 4.0 mg/kg/injection, schedule: Q01DX009 (ip), vehicle: water): 98 % of control and 88 % of control
T/C (dose: 5.0 mg/kg/injection, schedule: Q04DX003 (ip), vehicle: water): 104 % of control and 121 % of control
T/C (dose: 6.0 mg/kg/injection, schedule: Q04DX003 (ip), vehicle: water): 170 % of control
T/C (dose: 10.0 mg/kg/injection, schedule: Q01DX001 (ip), vehicle: water): 154 % of control
T/C (dose: 10.0 mg/kg/injection, schedule: Q04DX003 (ip), vehicle: water): 199 % of control
T/C (dose: 16.7 mg/kg/injection, schedule: Q04DX003 (ip), vehicle: water): 93 % of control
T/C (dose: 20.0 mg/kg/injection, schedule: Q01DX001 (ip), vehicle: water): 169 % of control
T/C (dose: 20.0 mg/kg/injection, schedule: Q04DX003 (ip), vehicle: water): 123 % of control
T/C (dose: 40.0 mg/kg/injection, schedule: Q04DX003 (ip), vehicle: water): 114 % of control

COc1ccc2c(c1O)-c1cccc3c1[C@@H](C2)N(CCOC(=O)NCCCl)CC3
T/C (dose: 9.38 mg/kg/injection, schedule: Q04DX003 (ip), vehicle: distilled water + Tween-80): 101 % of control
T/C (dose: 18.75 mg/kg/injection, schedule: Q04DX003 (ip), vehicle: distilled water + Tween-80): 99 % of control
T/C (dose: 37.5 mg/kg/injection, schedule: Q04DX003 (ip), vehicle: distilled water + Tween-80): 97 % of control
T/C (dose: 75.0 mg/kg/injection, schedule: Q04DX003 (ip), vehicle: distilled water + Tween-80): 99 % of control
T/C (dose: 150.0 mg/kg/injection, schedule: Q04DX003 (ip), vehicle: distilled water + Tween-80): 99 % of control
T/C (dose: 300.0 mg/kg/injection, schedule: Q04DX003 (ip), vehicle: distilled water + Tween-80): 105 % of control

O=C(CBr)c1cc2c(cc1I)OCO2
T/C (dose: 6.25 mg/kg/injection, schedule: Q01DX001 (ip), vehicle: saline with Tween-80): 104 % of control
T/C (dose: 12.5 mg/kg/injection, schedule: Q01DX001 (ip), vehicle: saline with Tween-80): 105 % of control
T/C (dose: 25.0 mg/kg/injection, schedule: Q01DX001 (ip), vehicle: saline with Tween-80): 99 % of control and 101 % of control
T/C (dose: 100.0 mg/kg/injection, schedule: Q01DX001 (ip), vehicle: saline with Tween-80): 100 % of control

CC(O)C(NC(=O)OCc1ccccc1)C(=O)NC(Cc1ccccc1)C(=O)O (stereo not drawn) (Cbz-Thr-Phe-OH; configuration not given here)
T/C [1]: 100 % of control
T/C [2]: 101 % of control
T/C [3]: 101 % of control

O=C(O)c1cc(O)c(O)c(O)c1
T/C (dose: 14.0 mg/kg/injection, schedule: Q01DX009 (ip), vehicle: saline): 105 % of control
T/C [4]: 100 % of control
T/C (dose: 35.0 mg/kg/injection, schedule: Q01DX009 (ip), vehicle: saline): 95 % of control
T/C (dose: 50.0 mg/kg/injection, schedule: Q01DX009 (ip), vehicle: saline): 103 % of control and 97 % of control
T/C (dose: 100.0 mg/kg/injection, schedule: Q01DX009 (ip), vehicle: saline): 100 % of control and 101 % of control
T/C (dose: 100.0 mg/kg/injection, schedule: Q01DX009 (ip), vehicle: water): 95 % of control
T/C [5]: 100 % of control
T/C (dose: 200.0 mg/kg/injection, schedule: Q01DX009 (ip), vehicle: saline): 118 % of control and 96 % of control
T/C (dose: 200.0 mg/kg/injection, schedule: Q01DX009 (ip), vehicle: water): 95 % of control
T/C [6]: 100 % of control
T/C (dose: 400.0 mg/kg/injection, schedule: Q01DX009 (ip), vehicle: saline): 106 % of control and 111 % of control
T/C (dose: 400.0 mg/kg/injection, schedule: Q01DX009 (ip), vehicle: water): 100 % of control
T/C [7]: 95 % of control
T/C (dose: 600.0 mg/kg/injection, schedule: Q01DX009 (ip), vehicle: saline): 110 % of control and 111 % of control

CC(=O)N1CN=C2Sc3ccccc3N2C1
T/C (dose: 15.0 mg/kg/injection, schedule: Q01DX005 (ip), vehicle: Klucel (hydroxypropylcellulose) (HPC)): 103 % of control
T/C (dose: 30.0 mg/kg/injection, schedule: Q01DX005 (ip), vehicle: Klucel (hydroxypropylcellulose) (HPC)): 105 % of control
T/C (dose: 60.0 mg/kg/injection, schedule: Q01DX005 (ip), vehicle: Klucel (hydroxypropylcellulose) (HPC)): 100 % of control and 104 % of control

CNS(=O)(=O)c1c([N+](=O)[O-])ncn1C
T/C (dose: 12.5 mg/kg/injection, schedule: Q01DX009 (ip), vehicle: Klucel (hydroxypropylcellulose) (HPC)): 109 % of control
T/C (dose: 25.0 mg/kg/injection, schedule: Q01DX009 (ip), vehicle: Klucel (hydroxypropylcellulose) (HPC)): 109 % of control and 115 % of control
T/C (dose: 50.0 mg/kg/injection, schedule: Q01DX009 (ip), vehicle: Klucel (hydroxypropylcellulose) (HPC)): 113 % of control
T/C (dose: 100.0 mg/kg/injection, schedule: Q01DX009 (ip), vehicle: Klucel (hydroxypropylcellulose) (HPC)): 123 % of control

CCOc1cc2cc(CCO)c(C)cc2cn1
T/C (dose: 6.25 mg/kg/injection, schedule: Q01DX009 (ip), vehicle: distilled water + Tween-80): 110 % of control
T/C (dose: 12.5 mg/kg/injection, schedule: Q01DX009 (ip), vehicle: distilled water + Tween-80): 108 % of control
T/C (dose: 25.0 mg/kg/injection, schedule: Q01DX009 (ip), vehicle: distilled water + Tween-80): 94 % of control
T/C (dose: 50.0 mg/kg/injection, schedule: Q01DX009 (ip), vehicle: distilled water + Tween-80): 94 % of control
T/C (dose: 100.0 mg/kg/injection, schedule: Q01DX009 (ip), vehicle: distilled water + Tween-80): 100 % of control and 90 % of control
T/C (dose: 200.0 mg/kg/injection, schedule: Q01DX009 (ip), vehicle: distilled water + Tween-80): 95 % of control
T/C (dose: 400.0 mg/kg/injection, schedule: Q01DX009 (ip), vehicle: distilled water + Tween-80): 104 % of control

CSc1nc2ncnc(N)c2[nH]1
T/C [8]: 93 % of control
T/C [9]: 96 % of control
T/C [10]: 108 % of control
